The results in this text go back to patent US6958353B2, “Imidazole derivatives or salts thereof and drugs containing the derivatives or the salts” (Hisamitsu Medical Co., Ltd., priority 2000, dated 2005).

Assay [1] concerns carrageenan-induced edema. The assay is described as follows: Anti-inflammatory effect 1: effect against carrageenan-induced edema. The class given is in vivo. The settings on record: mouse, leg volume 9 days after carrageenan. An excerpt:
Anti-inflammatory Effect 1: Effect Against Carrageenan-induced Edema
Male ICR mice (4 weeks old, Japan Charles River Co., Ltd.) were pre-bred in a breeding cage for about one week, and-healthy mice were selected for the test.
(2) Drugs Employed in the Test:
Each test compound was suspended in a 0.5% carboxymethyl cellulose sodium (0.5% CMC-Na solution, product of Wako Pure Chemical Industries, Ltd.) or dissolved in purified water. The suspension or solution was perorally administered at a dose of 0.1 mL/10 g (body weight of each mouse).
λ-Carrageenan (Picnin A, product of Zushi Kagaku) dissolved in physiological saline was used.
The volume of the right rear leg of each mouse was measured by means of a plethysmometer (product of Ugo Basile). Subsequently, a 2% carrageenan solution (0.05 mL) was injected into the foot pad of the leg. Five days after the injection of carrageenan (inflammation-inducing agent), the volume of the leg was measured. The mice were divided into groups, each group containing 8 mice. From the day of division (i.e., 5 days after administration of carrageenan), each test compound was preorally administered once per day for four days. The leg volume was measured before administration of each test compound and on the day after the final administration day (i.e., 9 days after administration of carrageenan). Percent edema and percent inhibition due to the test compound were calculated in accordance with the following equations, respectively. Percent edema (%)=[(leg volume (mL) after inflammation treatment−leg volume (mL) before inflammation treatment)/(leg volume (mL) before inflammation treatment)]×100 Percent inhibition (%)=[percent edema of control group (%)−percent edema of test-compound-administered group (%))/(percent edema of control group (%))]×100

For assay [2], the system named is RAW 264.7 cells. The assay is described as follows: Effect of inhibiting production of NO in LPS-stimulated RAW 264.7 cells (Griess reagent). The class given is cell-based, mouse. The settings on record: compound 2 μg/mL, RAW 264.7 cells stimulated with LPS 25 ng/mL. Here is the method:
(§1) Effect of Inhibiting Production of NO and IL-6
(§2) Growth of RAW 264.7 cells (mouse macrophage strains) was maintained in an RPMI 1640 medium containing 10% fetal bovine serum (FBS) and an antibiotic (10% FBS/RPMI) under culture conditions of 5% CO2 at 37° C. Upon testing, RAW 264.7 cells were washed with cold Dulbecco's phosphate buffered saline and subsequently removed from the plastic culture bottle by use of EDTA/trypsin. The thus-removed cells were centrifuged-and washed, followed by dilution with 10% FBS/RPMI to 4×10^5/mL. The cell suspension (0.5 mL) was added to each well of a 24-well-plate, and cultured under 5% CO2, at 37° C. for 16 hours. […] The live cells were washed once with 1% FBS/RPMI. Each test compound was diluted with the same medium, to thereby adjust the concentration to a predetermined level, and the liquid containing the test compound was added to the washed cells. […] NO contained in the culture supernatant was quantitated for its stable form (NO2^−) by use of a Griess reagent kit (product of Wako Pure Chemical Industries Ltd.). IL-6 was quantitated by use of an ELISA kit (product of Amersham) in accordance with the manual thereof. […]
On the technique in general: The Griess reaction detects nitrite, a stable product of nitric oxide.

For assay [3], the system named is RAW 264.7 cells. The assay is described as follows: Effect of inhibiting production of IL-6 in LPS-stimulated RAW 264.7 cells (ELISA). The class given is cell-based. Particulars: Mus musculus, RAW264.7, compound at 2 μg/mL, read-out: IL-6 production inhibitory effect Percent inhibition (%). Here is the method:
as §1, §2

Regarding `[O-][S+](CCOc1ccc(Cn2ccnc2)cc1)c1cnc(-c2ccccc2)c(-c2ccccc2)n1` (stereo not drawn) [Compound 1J, 5-(2-[4-(1H-imidazolylmethyl)phenoxy]ethyl)sulfinyl-2,3-diphenylpyrazine], in assay [1] (10 mg/kg perorally once per day for four days), the “Percent inhibition (%) of carrageenan-induced edema” value came to 41.2%.
One may read the inhibition as how much of the control response was suppressed. For the compound `c1ccc(-c2ncc(OCCOc3ccc(Cn4ccnc4)cc3)nc2-c2ccccc2)cc1` [Compound 1A, 5-2-[4-(1H-imidazolylmethyl)phenoxy]ethoxy-2,3-diphenylpyrazine], the inhibition at 2 µg/mL in the assay with RAW 264.7 cells [2] (Mus musculus, RAW264.7, read-out: NO production inhibitory effect Percent inhibition (%)) stood at 86%; in the assay with RAW 264.7 cells [3], 54.6%. Also, the “Percent inhibition (%) of carrageenan-induced edema” value in assay [1] (3 mg/kg perorally once per day for four days) came out at 30.5%.
Regarding “5-(2-[4-(1H-Imidazolylmethyl)phenoxy]ethyl)sulfanil-2,3-diphenylpyrazine [Compound 1I]”, the “NO production inhibitory effect Percent inhibition (%)” value in the assay with RAW 264.7 cells [2] was 62.8%.
For `COc1ccc2c(c1)c(CC(=O)O)c(C)n2C(=O)c1ccc(Cl)cc1` [Indomethacin], the “Percent inhibition (%) of carrageenan-induced edema” value in assay [1] (1 mg/kg perorally once per day for four days) is listed as 23.8%.
